Converted amounts (≈) assume the structure as drawn.
How the values were obtained:
[1] = biological target: T1, Vascular endothelial growth factor receptor 2 (Homo sapiens, UniProt P35968)
MCF7 [2] = assay: Induction of cell cycle arrest in human MCF7 cells assessed as reduction in accumulation of cells in G2/M phase at 10 uM incubated for 24 hrs by PI staining based flow cytometry analysis relative to control; assay type: functional; set-up: scale not given: the % may be the effect or the level left
MCF7 [3] = assay: Cytotoxicity against human MCF7 cells assessed as reduction in cell growth incubated for 24 hrs by MTT assay; assay type: functional, cell-based; conditions: MCF7, 24 h
[4] = biological target: Serine/threonine-protein kinase B-raf (Homo sapiens, UniProt P15056, V600E); assay: Inhibition of B-RAF V600E mutant (unknown origin) using […] as substrate incubated for 40 mins in presence of [gamma33P]ATP by scintillation counter based kinase assay
Sequence of Serine/threonine-protein kinase B-raf (Homo sapiens, UniProt P15056, V600E) (P15056 2-766 V600E limits assumed): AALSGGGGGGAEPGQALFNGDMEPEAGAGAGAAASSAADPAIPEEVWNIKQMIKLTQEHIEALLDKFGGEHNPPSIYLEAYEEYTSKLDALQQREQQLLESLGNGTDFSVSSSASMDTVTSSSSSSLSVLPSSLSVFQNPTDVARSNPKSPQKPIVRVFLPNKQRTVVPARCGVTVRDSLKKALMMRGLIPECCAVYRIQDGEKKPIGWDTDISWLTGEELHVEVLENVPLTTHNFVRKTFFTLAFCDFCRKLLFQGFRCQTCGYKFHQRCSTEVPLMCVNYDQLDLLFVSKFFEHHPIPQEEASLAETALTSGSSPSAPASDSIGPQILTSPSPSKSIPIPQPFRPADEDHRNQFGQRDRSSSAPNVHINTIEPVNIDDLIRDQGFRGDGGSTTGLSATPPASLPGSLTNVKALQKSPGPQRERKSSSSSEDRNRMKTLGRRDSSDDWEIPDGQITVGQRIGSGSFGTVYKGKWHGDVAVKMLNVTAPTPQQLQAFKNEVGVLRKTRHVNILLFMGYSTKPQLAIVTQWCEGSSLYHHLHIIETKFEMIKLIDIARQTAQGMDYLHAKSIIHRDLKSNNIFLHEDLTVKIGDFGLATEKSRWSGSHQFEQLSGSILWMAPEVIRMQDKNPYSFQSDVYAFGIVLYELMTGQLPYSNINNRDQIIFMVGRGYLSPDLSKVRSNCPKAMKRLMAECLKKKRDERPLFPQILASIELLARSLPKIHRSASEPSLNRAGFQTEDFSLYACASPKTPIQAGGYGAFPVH

[5] = biological target: T1, Vascular endothelial growth factor receptor 2; assay: Inhibition of VEGFR-2 (unknown origin) kinase activity using poly(Glu-Tyr) at 4:1 ratio as substrate in presence of ATP incubated for 60 mins by ELISA
[6] = biological target: T2, Epidermal growth factor receptor (Homo sapiens, UniProt P00533); assay: Inhibition of human recombinant EGFR using poly(Glu-Tyr) as substrate at 4:1 ratio in presence of ATP incubated for 60 mins by ELISA analysis
T2 sequence (P00533 whole entry): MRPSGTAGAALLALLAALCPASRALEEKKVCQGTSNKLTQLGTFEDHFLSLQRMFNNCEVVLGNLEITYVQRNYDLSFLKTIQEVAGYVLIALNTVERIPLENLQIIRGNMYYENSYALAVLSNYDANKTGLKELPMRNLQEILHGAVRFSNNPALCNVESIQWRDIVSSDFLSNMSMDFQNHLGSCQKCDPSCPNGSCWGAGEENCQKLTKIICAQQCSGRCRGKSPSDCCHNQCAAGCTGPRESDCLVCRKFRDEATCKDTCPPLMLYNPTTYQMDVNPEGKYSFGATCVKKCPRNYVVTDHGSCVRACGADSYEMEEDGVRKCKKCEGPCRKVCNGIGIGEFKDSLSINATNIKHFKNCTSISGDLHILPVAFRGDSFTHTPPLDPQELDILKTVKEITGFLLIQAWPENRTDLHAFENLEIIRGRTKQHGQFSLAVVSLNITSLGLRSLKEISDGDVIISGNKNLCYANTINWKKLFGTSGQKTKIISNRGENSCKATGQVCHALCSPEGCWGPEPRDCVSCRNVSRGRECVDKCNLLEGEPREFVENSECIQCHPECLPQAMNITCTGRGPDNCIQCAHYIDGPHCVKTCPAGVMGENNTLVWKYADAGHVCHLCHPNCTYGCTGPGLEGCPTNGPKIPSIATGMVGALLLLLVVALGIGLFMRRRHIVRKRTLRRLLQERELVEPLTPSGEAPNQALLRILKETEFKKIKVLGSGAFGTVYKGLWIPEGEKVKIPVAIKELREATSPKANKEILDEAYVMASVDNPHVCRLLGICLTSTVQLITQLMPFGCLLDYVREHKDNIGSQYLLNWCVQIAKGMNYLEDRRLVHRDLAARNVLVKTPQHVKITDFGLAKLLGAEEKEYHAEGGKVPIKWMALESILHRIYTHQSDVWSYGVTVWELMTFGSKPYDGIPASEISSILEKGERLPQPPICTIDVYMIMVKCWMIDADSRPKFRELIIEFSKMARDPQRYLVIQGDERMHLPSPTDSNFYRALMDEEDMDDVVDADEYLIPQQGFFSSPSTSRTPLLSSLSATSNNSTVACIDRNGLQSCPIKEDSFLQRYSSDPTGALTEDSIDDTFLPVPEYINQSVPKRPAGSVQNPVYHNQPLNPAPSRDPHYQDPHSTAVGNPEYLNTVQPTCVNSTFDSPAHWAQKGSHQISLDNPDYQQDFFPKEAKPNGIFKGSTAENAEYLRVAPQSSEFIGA

[7] = biological target: Serine/threonine-protein kinase B-raf (Homo sapiens, UniProt P15056); assay: Inhibition of human recombinant B-Raf using […] as substrate incubated for 40 mins in presence of [gamma33P]ATP by scintillation counter based kinase assay
[8] = biological target: RAF proto-oncogene serine/threonine-protein kinase (Homo sapiens, UniProt P04049); assay: Inhibition of human recombinant C-Raf using Glu-Tyr-Met-Pro-Met-Glu as substrate incubated for 60 mins by radiometric kinase assay
Sequence of RAF proto-oncogene serine/threonine-protein kinase (P04049 whole entry): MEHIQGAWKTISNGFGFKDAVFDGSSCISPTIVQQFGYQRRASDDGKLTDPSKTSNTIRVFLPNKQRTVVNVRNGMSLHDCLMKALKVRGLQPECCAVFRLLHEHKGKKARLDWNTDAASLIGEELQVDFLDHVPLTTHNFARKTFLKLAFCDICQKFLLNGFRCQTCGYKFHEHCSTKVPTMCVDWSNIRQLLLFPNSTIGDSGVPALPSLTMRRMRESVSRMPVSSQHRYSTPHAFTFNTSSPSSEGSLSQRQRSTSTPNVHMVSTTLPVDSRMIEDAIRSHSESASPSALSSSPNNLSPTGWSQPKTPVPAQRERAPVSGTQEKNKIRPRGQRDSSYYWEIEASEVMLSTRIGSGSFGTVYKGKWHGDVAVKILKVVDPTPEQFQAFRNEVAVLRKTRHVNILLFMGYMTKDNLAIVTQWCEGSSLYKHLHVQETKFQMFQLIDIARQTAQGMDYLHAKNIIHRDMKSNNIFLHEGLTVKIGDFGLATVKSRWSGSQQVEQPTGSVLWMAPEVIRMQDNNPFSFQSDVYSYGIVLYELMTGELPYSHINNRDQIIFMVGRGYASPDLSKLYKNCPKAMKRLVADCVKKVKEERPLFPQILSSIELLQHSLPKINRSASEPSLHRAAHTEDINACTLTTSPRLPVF

HepG2 [9] = assay: Antiproliferative activity against human HepG2 cells assessed as reduction in cell growth incubated for 48 hrs by MTT based colorimetric analysis; assay type: functional; conditions: HepG2, 48 h
MDA-MB-231 [10] = assay: Cytotoxicity against human MDA-MB-231 cells assessed as reduction in cell viability incubated for 48 hrs by MTT assay; assay type: functional, cell-based; conditions: MDA-MB-231, 48 h
[11] = biological target: T1, Vascular endothelial growth factor receptor 2; remark: listed apart in the source
MDA-MB-231 [12] = assay: Cytotoxicity against human MDA-MB-231 cells assessed as reduction in cell viability incubated for 24 hrs by MTT assay; assay type: functional, cell-based; conditions: MDA-MB-231, 24 h
[13] = biological target: T1, Vascular endothelial growth factor receptor 2; assay: Inhibition of N-terminal polyhistidine human recombinant KDR using poly-(Glu4-Tyr) peptide as substrate incubated for 60 mins by DELFIA/time-resolved fluorometric analysis
A549 = assay: cells; conditions: Homo sapiens, A549, 48 h
NCI-H460 = assay: cells; conditions: Homo sapiens, NCI-H460, 48 h
Macrophage = assay: cells; conditions: Homo sapiens, 48 h
B16 = assay: Antiproliferative activity against mouse B16 cells assessed as reduction in cell viability incubated for 48 hrs by MTT assay; assay type: functional, cell-based; conditions: B16, 48 h
HCT-116 [14] = assay: cells; conditions: Homo sapiens, HCT-116, 48 h
MCF7 [15] = assay: cells; conditions: Homo sapiens, MCF7, 48 h
MHCC97H = assay: Antiproliferative activity against human MHCC97H cells assessed as reduction in cell viability incubated for 48 hrs by CCK-8 assay; assay type: functional, cell-based
HUVEC [16] = assay: Antiproliferative activity against HUVEC cells assessed as reduction in cell viability incubated for 48 hrs by CCK-8 assay; assay type: functional, cell-based; conditions: Homo sapiens
L02 = assay: Cytotoxicity against human L02 cells assessed as cell growth inhibition measured after 48 hrs by CCK-8 assay; assay type: functional, cell-based; conditions: L02, 48 h
HEK293 = assay: Cytotoxicity against HEK293 cells assessed as cell growth inhibition measured after 48 hrs by CCK-8 assay; assay type: functional, cell-based; conditions: Homo sapiens, HEK293, 48 h
in vitro = conditions: human, HUVEC cells
[17] = Oral bioavailability in rat at 2.5 mg/kg; assay type: ADME, organism-based; conditions: in vivo
Calu-6 = assay: Antitumor activity against human Calu-6 cells xenografted in athymic mouse assessed as inhibition of tumor growth at 100 mg/kg, po administered once daily for 21 days relative to control; assay type: functional; set-up: scale not given: the % may be the effect or the level left; conditions: time 21 day
HUVEC [18] = assay: cells; conditions: Homo sapiens
HUVEC [19] = assay: cells; conditions: Homo sapiens; remark: listed apart in the source
[20] = Half life in rat at 5 mg/kg, iv; assay type: ADME, organism-based; conditions: in vivo
MCF7 [21] = assay: cells; conditions: Homo sapiens, MCF7, 48 h; remark: listed apart in the source
HepG2 [22] = assay: Antiproliferative activity against human HepG2 cells assessed as reduction in cell viability measured after 72 hrs by MTT assay; assay type: functional, cell-based; conditions: HepG2, 72 h
MCF7 [23] = assay: Antiproliferative activity against human MCF7 cells assessed as reduction in cell viability measured after 72 hrs by MTT assay; assay type: functional, cell-based; conditions: MCF7, 72 h
[24] = biological target: T2, Epidermal growth factor receptor; assay: Inhibition of EGFR (unknown origin) using TK as substrate incubated for 60 mins by HTRF method
HCT-116 [25] = assay: Antiproliferative activity against human HCT-116 cells assessed as reduction in cell growth incubated for 24 hrs by MTT assay; assay type: functional, cell-based; conditions: HCT-116, 24 h
MCF7 [26] = assay: Antiproliferative activity against human MCF7 cells assessed as reduction in cell growth incubated for 24 hrs by MTT assay; assay type: functional, cell-based; conditions: MCF7, 24 h
[27] = biological target: Vascular endothelial growth factor receptor 3 (Homo sapiens, UniProt P35916); assay: Inhibition of VEGFR-3 (unknown origin)
[28] = biological target: Vascular endothelial growth factor receptor 1 (Homo sapiens, UniProt P17948); assay: Inhibition of VEGFR-1 (unknown origin)
MCF7 [29] = assay: Antiproliferative activity against human MCF7 cells assessed as reduction in cell viability measured after 48 hrs by MTT assay; assay type: functional, cell-based; conditions: MCF7, 48 h
HCT-116 [30] = assay: Antiproliferative activity against human HCT-116 cells assessed as reduction in cell viability measured after 48 hrs by MTT assay; assay type: functional, cell-based; conditions: HCT-116, 48 h
Angiopoietin-1 receptor = Angiopoietin-1 receptor (Homo sapiens, UniProt Q02763); assay: Inhibition of TIE-2 (unknown origin)
[31] = biological target: Platelet-derived growth factor receptor beta (Homo sapiens, UniProt P09619); assay: Inhibition of human recombinant PDGFRbeta using poly (Glu, Tyr)4:1 as substrate measured after 60 mins by ELISA
Ephrin type-B receptor 4 = Ephrin type-B receptor 4 (Homo sapiens, UniProt P54760)
Sequence of Ephrin type-B receptor 4 (P54760 whole entry): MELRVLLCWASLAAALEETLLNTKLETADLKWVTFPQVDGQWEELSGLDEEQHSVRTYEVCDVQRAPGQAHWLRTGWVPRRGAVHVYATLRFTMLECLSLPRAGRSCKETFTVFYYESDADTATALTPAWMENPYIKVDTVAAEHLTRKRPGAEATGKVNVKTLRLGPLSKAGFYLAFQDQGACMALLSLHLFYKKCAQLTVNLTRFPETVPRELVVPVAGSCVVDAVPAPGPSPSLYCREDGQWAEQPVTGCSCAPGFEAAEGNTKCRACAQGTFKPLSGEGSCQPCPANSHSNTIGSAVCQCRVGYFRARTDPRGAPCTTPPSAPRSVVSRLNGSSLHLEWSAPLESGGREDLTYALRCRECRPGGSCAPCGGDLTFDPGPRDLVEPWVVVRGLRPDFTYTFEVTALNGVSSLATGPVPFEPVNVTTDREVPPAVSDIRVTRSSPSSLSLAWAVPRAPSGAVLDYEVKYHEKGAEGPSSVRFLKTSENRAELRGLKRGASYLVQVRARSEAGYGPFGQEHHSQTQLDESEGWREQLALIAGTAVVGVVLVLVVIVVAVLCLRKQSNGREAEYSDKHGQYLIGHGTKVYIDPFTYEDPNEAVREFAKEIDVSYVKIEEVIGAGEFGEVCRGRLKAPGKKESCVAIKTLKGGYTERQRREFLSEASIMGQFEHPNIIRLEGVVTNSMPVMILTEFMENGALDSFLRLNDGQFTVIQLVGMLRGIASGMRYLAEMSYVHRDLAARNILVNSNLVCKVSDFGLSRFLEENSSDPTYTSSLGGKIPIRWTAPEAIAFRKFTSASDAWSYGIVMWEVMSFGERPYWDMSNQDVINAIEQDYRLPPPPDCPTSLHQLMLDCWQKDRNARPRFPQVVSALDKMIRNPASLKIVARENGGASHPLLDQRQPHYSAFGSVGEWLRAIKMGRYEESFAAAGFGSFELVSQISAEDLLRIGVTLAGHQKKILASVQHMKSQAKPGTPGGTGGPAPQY

T1 sequence (P35968 whole entry): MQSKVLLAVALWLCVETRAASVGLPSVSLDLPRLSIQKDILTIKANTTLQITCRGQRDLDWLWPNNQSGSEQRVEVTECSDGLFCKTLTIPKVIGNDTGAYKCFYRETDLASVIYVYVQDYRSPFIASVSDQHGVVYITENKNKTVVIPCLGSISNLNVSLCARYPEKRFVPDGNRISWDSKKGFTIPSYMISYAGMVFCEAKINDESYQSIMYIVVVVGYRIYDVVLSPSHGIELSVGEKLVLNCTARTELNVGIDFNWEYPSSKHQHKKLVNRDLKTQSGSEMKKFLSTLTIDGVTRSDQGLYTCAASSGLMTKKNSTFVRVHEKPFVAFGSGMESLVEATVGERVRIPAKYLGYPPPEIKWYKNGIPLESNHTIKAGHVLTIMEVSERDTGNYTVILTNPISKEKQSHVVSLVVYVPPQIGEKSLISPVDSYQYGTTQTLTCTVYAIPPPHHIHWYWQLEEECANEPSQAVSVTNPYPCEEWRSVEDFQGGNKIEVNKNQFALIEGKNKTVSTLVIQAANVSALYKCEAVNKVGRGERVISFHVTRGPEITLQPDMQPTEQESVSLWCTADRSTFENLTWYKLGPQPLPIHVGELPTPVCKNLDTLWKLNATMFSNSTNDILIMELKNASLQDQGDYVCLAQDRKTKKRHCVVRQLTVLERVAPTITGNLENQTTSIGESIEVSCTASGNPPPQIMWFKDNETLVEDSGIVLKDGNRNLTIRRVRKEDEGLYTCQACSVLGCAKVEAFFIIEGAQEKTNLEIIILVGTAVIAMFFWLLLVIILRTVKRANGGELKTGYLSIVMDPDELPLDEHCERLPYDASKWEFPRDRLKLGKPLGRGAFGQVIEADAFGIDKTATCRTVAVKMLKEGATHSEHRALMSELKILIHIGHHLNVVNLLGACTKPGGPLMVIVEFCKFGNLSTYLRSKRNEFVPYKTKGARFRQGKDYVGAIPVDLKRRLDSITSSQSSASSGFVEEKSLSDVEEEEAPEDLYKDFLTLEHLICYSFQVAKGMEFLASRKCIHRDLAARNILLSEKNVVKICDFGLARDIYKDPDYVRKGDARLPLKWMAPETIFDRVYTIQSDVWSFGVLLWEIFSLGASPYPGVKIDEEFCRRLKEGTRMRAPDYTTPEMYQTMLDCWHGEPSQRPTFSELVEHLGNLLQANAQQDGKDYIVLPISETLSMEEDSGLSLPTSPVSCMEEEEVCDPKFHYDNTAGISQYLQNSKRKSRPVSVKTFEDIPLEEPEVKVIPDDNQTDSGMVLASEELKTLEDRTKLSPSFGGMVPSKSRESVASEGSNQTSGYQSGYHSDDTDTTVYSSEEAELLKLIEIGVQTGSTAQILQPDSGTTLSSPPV

NS(=O)(=O)c1ccc(-n2c(SCC(=O)N/N=C/c3ccc(Cl)cc3Cl)nc3cc4ccccc4cc3c2=O)cc1
IC50 [1]: 640 nM | Activity (MCF7 [2]): 24.17% | IC50 (MCF7 [3]): 100 nM

NC(=O)CCn1cc(-c2ccc3ncnc(Nc4cc(O)c(F)cc4F)c3c2)nn1
IC50 [4]: 51 nM | IC50 [5]: 7 nM | IC50 [6]: 73 nM | IC50 [7]: 57 nM | IC50 [8]: 1000 nM

CCNC(=S)NS(=O)(=O)c1ccc(NC(=O)CSc2nc3ccccc3c(=O)n2CC)cc1
IC50 (HepG2 [9]): 4.33 µM

COc1cccc(CNC(=O)CSc2nc3ccccc3c(=O)n2-c2ccc(S(N)(=O)=O)cc2)c1OC
IC50 (MDA-MB-231 [10]): 510 nM | IC50 [11]: 247 nM | IC50 (MDA-MB-231 [12]): 340 nM

O=[N+]([O-])c1ccc(COc2ncnc3ccc([N+](=O)[O-])cc23)cc1
IC50 [13]: 4.71 nM

COc1cc2nccc(Oc3ccc(NC(=O)Nc4cc(C)on4)c(Cl)c3)c2cc1OC [TIVOZANIB]
IC50 (A549): 620 nM | IC50 (NCI-H460): 390 nM | IC50 (Macrophage): 227 µM

COc1cc2ncnc(Oc3cccc(NC(=S)Nc4ccc(Br)c(C(F)(F)F)c4)c3)c2cc1OC
IC50 (B16): 5.57 µM | IC50 (HCT-116 [14]): 8.35 µM | IC50 (MCF7 [15]): 15.7 µM

COc1cc2ncnc(Oc3ccc(NC(=O)C4(C(=O)Nc5ccc(F)cc5)CC4)cc3F)c2c2c1OCCO2
IC50 (MHCC97H): 58.6 µg/mL (≈ 107 µM) | IC50 (HUVEC [16]): 3.7 µg/mL (≈ 6.75 µM) | IC50 (L02): 12.6 µg/mL (≈ 23 µM) | IC50 (HEK293): 15.1 µg/mL (≈ 27.5 µM)

COc1cc2/c(=N/c3ccc(Br)cc3F)nc[nH]c2cc1OCC1CCN(C)CC1 [VANDETANIB]
EC50 (in vitro): > 3000 nM | bioavailability [17]: > 50% | Activity (Calu-6): 79% | EC50 (HUVEC [18]): 60 nM | EC50 (HUVEC [19]): 10 nM | half-life [20]: 498 min

Cc1ncc([N+](=O)[O-])n1CCOc1ncnc2ccc([N+](=O)[O-])cc12
IC50 (A549): 1520 nM | IC50 (NCI-H460): 1230 nM | IC50 (MCF7 [21]): 1610 nM | IC50 (Macrophage): 290 µM

CCn1c(SCCCN2C(=O)c3ccccc3C2=O)nc2cc3ccccc3cc2c1=O
IC50 (HepG2 [22]): 26 µM | IC50 (MCF7 [23]): 9.4 µM

CC(C)c1ccc(Nc2ncnc3cc(NC(=O)Nc4ccccc4)ccc23)cc1
IC50 [24]: 479 nM

CCn1c(SCC(=O)Nc2ccc(/C(C)=N/O)cc2)nc2ccccc2c1=O
IC50 (HCT-116 [25]): 4.83 µM | IC50 (MCF7 [26]): 4.58 µM

CCCNC(=O)Nc1ccc(Nc2ncnc3cc(OC)c(OC)cc23)cc1Cl
IC50 [1]: 160 nM | IC50 [27]: 125 nM | IC50 [28]: 170 nM

O=C(CSc1nc2ccc(Cl)cc2c(=O)n1-c1ccccc1)N/N=C/c1cccc(F)c1
IC50 (MCF7 [29]): 9.63 µM | IC50 (HCT-116 [30]): 1580 nM

O=C(Nc1ccc(-c2ccc3c(=O)[nH]cnc3c2)cc1)Nc1ccc(F)c(F)c1
IC50 (Angiopoietin-1 receptor): 8.87 µM | IC50 [31]: 98.5 µM | IC50 (Ephrin type-B receptor 4): 3.21 µM

Source: ChEMBL document CHEMBL5625175, “Quinazoline-based VEGFR-2 inhibitors as potential anti-angiogenic agents: A contemporary perspective of SAR and molecular docking studies” (Eur J Med Chem, 2023)
